Source: patent US8410302B2, “Methoxyimino compounds and fungicide composition comprising same” (Kyung Nong Corporation, priority 2007, dated 2013)
Like-named read-outs stand apart in the source and are kept apart here.

Experiments:
[1] = tested on: Pyricularia oryzae Carvara KA301; experiment: whole plant or invertebrate; format: in vivo; conditions: for RCB control value (C.V.): rice blast; for pest or weed control at 2 ppm / pest or weed control at 10 ppm / pest or weed control at 50 ppm / pest or weed control at 100 ppm: Pyricularia oryzae, read-out: RCB control value (C.V.)
Botrytis cinerae = experiment: Fungicidal activity against cucumber gray mold rot (CGM) disease, control value; format: in vivo; conditions: 100 ppm; for pest or weed control at 100 ppm: Botrytis, read-out: CGM control value (C.V.)
Phytophthora infestans = experiment: whole plant or invertebrate; format: in vivo; conditions: for TLB control value (C.V.): tomato late blight; for pest or weed control at 2 ppm / pest or weed control at 10 ppm / pest or weed control at 50 ppm / pest or weed control at 100 ppm: Phytophthora infestans, in Solanum lycopersicum, read-out: TLB control value (C.V.)
Puccinia recondita = experiment: Fungicidal activity against wheat leaf rust (WLR) disease, control value; format: in vivo; conditions: for pest or weed control at 2 ppm / pest or weed control at 10 ppm / pest or weed control at 50 ppm / pest or weed control at 100 ppm: read-out: WLR control value (C.V.)
Erysiphae graminis = experiment: Fungicidal activity against barley powdery mildew (BPM) disease, control value; format: in vivo; conditions: for pest or weed control at 2 ppm / pest or weed control at 10 ppm / pest or weed control at 50 ppm / pest or weed control at 100 ppm: 168 h, read-out: BPM control value (C.V.)
Rhizoctonia solani AG-1 = experiment: Fungicidal activity against rice sheath blight (RSB) disease, control value; conditions: for RSB control value (C.V.): rice sheath blight; for pest or weed control at 2 ppm / pest or weed control at 10 ppm / pest or weed control at 50 ppm / pest or weed control at 100 ppm: Rhizoctonia solani, AG1, in Oryza sativa, read-out: RSB control value (C.V.)

`CNC(=O)/C(=N/OC)c1ccccc1CON=C(C)c1ccc(C=C(F)F)cc1` [Example 30, (E)-2-[[[[[2-[4-(2,2-difluorovinyl)phenyl](1-methyl)methylidene]amino]oxy]methyl]phenyl]-2-methoxyimino-N-methylacetamide] was tested, and the “RCB control value (C.V.)” value ([1]; 2 ppm) was 100%, the “RCB control value (C.V.)” value ([1]; 10 ppm) was 100% and the “RCB control value (C.V.)” value ([1]; 50 ppm) was 100%. The “RCB control value (C.V.)” value ([1]; 100 ppm) was 100%, the “CGM control value (C.V.)” value (Botrytis cinerae; cucumber gray mold rot) was 60% and the “TLB control value (C.V.)” value (Phytophthora infestans; 2 ppm) was 100%. For the same compound, the “TLB control value (C.V.)” value (Phytophthora infestans; 10 ppm) was 100%, the “TLB control value (C.V.)” value (Phytophthora infestans; 50 ppm) was 100% and the “TLB control value (C.V.)” value (Phytophthora infestans; 100 ppm) was 100%. For the same compound, the “WLR control value (C.V.)” value (Puccinia recondita; 2 ppm, wheat leaf rust) was 90%, the “WLR control value (C.V.)” value (Puccinia recondita; 10 ppm, wheat leaf rust) was 100% and the “WLR control value (C.V.)” value (Puccinia recondita; 50 ppm, wheat leaf rust) was 100%. For the same compound, the “WLR control value (C.V.)” value (Puccinia recondita; 100 ppm, wheat leaf rust) was 100%, the “BPM control value (C.V.)” value (Erysiphae graminis; 50 ppm, barley powdery mildew) was 60% and the “BPM control value (C.V.)” value (Erysiphae graminis; 100 ppm, barley powdery mildew) was 98%. The “RSB control value (C.V.)” value (Rhizoctonia solani AG-1; 100 ppm) was 45%.
In the case of `CNC(=O)/C(=N/OC)c1ccccc1CON=C(C)c1cccc(C=C(Cl)Br)c1` [Example 36, (E)-2-[[[[[2-[3-(2-bromo-2-chlorovinyl)phenyl](1-methyl)methylidene]amino]oxy]methyl]phenyl]-2-methoxyimino-N-methylacetamide], the “RCB control value (C.V.)” value ([1]; 2 ppm) is reported as 100%, the “RCB control value (C.V.)” value ([1]; 10 ppm) is reported as 100% and the “RCB control value (C.V.)” value ([1]; 50 ppm) is reported as 100%. For the same compound, the “RCB control value (C.V.)” value ([1]; 100 ppm) was 100%, the “CGM control value (C.V.)” value (Botrytis cinerae; cucumber gray mold rot) was 65% and the “TLB control value (C.V.)” value (Phytophthora infestans; 2 ppm) was 30%. For the same compound, the “TLB control value (C.V.)” value (Phytophthora infestans; 10 ppm) was 80%, the “TLB control value (C.V.)” value (Phytophthora infestans; 50 ppm) was 100% and the “TLB control value (C.V.)” value (Phytophthora infestans; 100 ppm) was 100%. The “WLR control value (C.V.)” value (Puccinia recondita; 2 ppm, wheat leaf rust) was 100%, the “WLR control value (C.V.)” value (Puccinia recondita; 10 ppm, wheat leaf rust) was 100% and the “WLR control value (C.V.)” value (Puccinia recondita; 50 ppm, wheat leaf rust) was 100%. The “WLR control value (C.V.)” value (Puccinia recondita; 100 ppm, wheat leaf rust) was 100%, the “BPM control value (C.V.)” value (Erysiphae graminis; 2 ppm, barley powdery mildew) was 100% and the “BPM control value (C.V.)” value (Erysiphae graminis; 10 ppm, barley powdery mildew) was 100%. For the same compound, the “BPM control value (C.V.)” value (Erysiphae graminis; 50 ppm, barley powdery mildew) was 100%, the “BPM control value (C.V.)” value (Erysiphae graminis; 100 ppm, barley powdery mildew) was 100% and the “RSB control value (C.V.)” value (Rhizoctonia solani AG-1; 2 ppm) was 67%. The “RSB control value (C.V.)” value (Rhizoctonia solani AG-1; 10 ppm) was 90%, the “RSB control value (C.V.)” value (Rhizoctonia solani AG-1; 50 ppm) was 98% and the “RSB control value (C.V.)” value (Rhizoctonia solani AG-1; 100 ppm) was 100%.
Compound `CNC(=O)/C(=N/OC)c1ccccc1COc1ccc(C=C(Br)Br)cc1Br` [Example 78, (E)-2-(2-((2-bromo-4-(2,2-dibromovinyl)phenoxy)methyl)phenyl)-2-methoxyimino-N-methylacetamide] has a pest or weed control at 2 ppm [1] of 40%, a pest or weed control at 10 ppm [1] of 90% and a pest or weed control at 50 ppm [1] of 98%. For the same compound, the pest or weed control at 100 ppm [1] was 100%, the pest or weed control at 100 ppm (Botrytis cinerae) was 40% and the pest or weed control at 2 ppm (Phytophthora infestans) was 70%. For the same compound, the pest or weed control at 10 ppm (Phytophthora infestans) was 90%, the pest or weed control at 50 ppm (Phytophthora infestans) was 98% and the pest or weed control at 100 ppm (Phytophthora infestans) was 100%. The pest or weed control at 2 ppm (Puccinia recondita; Puccinia recondita, 2 ppm) was 95%, the pest or weed control at 10 ppm (Puccinia recondita; Puccinia recondita, 10 ppm) was 98% and the pest or weed control at 50 ppm (Puccinia recondita; Puccinia recondita, 50 ppm) was 100%. It also gave a pest or weed control at 100 ppm (Puccinia recondita; Puccinia recondita, 100 ppm) of 100%, a pest or weed control at 2 ppm (Erysiphae graminis; 2 ppm) of 90% and a pest or weed control at 10 ppm (Erysiphae graminis; 10 ppm) of 100%. The pest or weed control at 50 ppm (Erysiphae graminis; 50 ppm) was 100%, the pest or weed control at 100 ppm (Erysiphae graminis; 100 ppm) was 100% and the pest or weed control at 2 ppm (Rhizoctonia solani AG-1) was 65%. The pest or weed control at 10 ppm (Rhizoctonia solani AG-1) was 98%, the pest or weed control at 50 ppm (Rhizoctonia solani AG-1) was 100% and the pest or weed control at 100 ppm (Rhizoctonia solani AG-1) was 100%.
With `CNC(=O)/C(=N/OC)c1ccccc1CON=C(C)c1cccc(C=C(Br)Br)c1` [Example 24, (E)-2-[[[[[2-[3-(2,2-dibromovinyl)phenyl](1-methyl)methylidene]amino]oxy]methyl]phenyl]-2-methoxyimino-N-methylacetamide] the “RCB control value (C.V.)” value ([1]; 2 ppm) was 98%, the “RCB control value (C.V.)” value ([1]; 10 ppm) was 100% and the “RCB control value (C.V.)” value ([1]; 50 ppm) was 100%. The “RCB control value (C.V.)” value ([1]; 100 ppm) was 100%, the “CGM control value (C.V.)” value (Botrytis cinerae; cucumber gray mold rot) was 60% and the “TLB control value (C.V.)” value (Phytophthora infestans; 100 ppm) was 50%. For the same compound, the “WLR control value (C.V.)” value (Puccinia recondita; 2 ppm, wheat leaf rust) was 0%, the “WLR control value (C.V.)” value (Puccinia recondita; 10 ppm, wheat leaf rust) was 35% and the “WLR control value (C.V.)” value (Puccinia recondita; 50 ppm, wheat leaf rust) was 95%. For the same compound, the “WLR control value (C.V.)” value (Puccinia recondita; 100 ppm, wheat leaf rust) was 98%, the “BPM control value (C.V.)” value (Erysiphae graminis; 2 ppm, barley powdery mildew) was 10% and the “BPM control value (C.V.)” value (Erysiphae graminis; 10 ppm, barley powdery mildew) was 60%. For the same compound, the “BPM control value (C.V.)” value (Erysiphae graminis; 50 ppm, barley powdery mildew) was 90%, the “BPM control value (C.V.)” value (Erysiphae graminis; 100 ppm, barley powdery mildew) was 100% and the “RSB control value (C.V.)” value (Rhizoctonia solani AG-1; 2 ppm) was 30%. For the same compound, the “RSB control value (C.V.)” value (Rhizoctonia solani AG-1; 10 ppm) was 90%, the “RSB control value (C.V.)” value (Rhizoctonia solani AG-1; 50 ppm) was 100% and the “RSB control value (C.V.)” value (Rhizoctonia solani AG-1; 100 ppm) was 100%.
In the case of `CO/N=C(/C(=O)OC)c1ccccc1COc1c(OC)ccc(C=C(Cl)Cl)c1Br` [Example 51, methyl-(E)-2-(2-((2-bromo-3-(2,2-dichlorovinyl)-6-methoxyphenoxy)methyl)phenyl)-2-methoxyiminoacetate], the pest or weed control at 2 ppm [1] is reported as 90%, the pest or weed control at 10 ppm [1] is reported as 100% and the pest or weed control at 50 ppm [1] is reported as 100%. It also gave a pest or weed control at 100 ppm [1] of 100%, a pest or weed control at 100 ppm (Botrytis cinerae; cucumber gray mold rot) of 75% and a pest or weed control at 2 ppm (Phytophthora infestans) of 90%. For the same compound, the pest or weed control at 10 ppm (Phytophthora infestans) was 97%, the pest or weed control at 50 ppm (Phytophthora infestans) was 100% and the pest or weed control at 100 ppm (Phytophthora infestans) was 100%. For the same compound, the pest or weed control at 2 ppm (Puccinia recondita; 2 ppm, wheat leaf rust) was 100%, the pest or weed control at 10 ppm (Puccinia recondita; 10 ppm, wheat leaf rust) was 100% and the pest or weed control at 50 ppm (Puccinia recondita; 50 ppm, wheat leaf rust) was 100%. It also gave a pest or weed control at 100 ppm (Puccinia recondita; 100 ppm, wheat leaf rust) of 100%, a pest or weed control at 2 ppm (Erysiphae graminis; Hordeum vulgare, 2 ppm, barley powdery mildew) of 100% and a pest or weed control at 10 ppm (Erysiphae graminis; Hordeum vulgare, 10 ppm, barley powdery mildew) of 100%. It also gave a pest or weed control at 50 ppm (Erysiphae graminis; Hordeum vulgare, 50 ppm, barley powdery mildew) of 100%, a pest or weed control at 100 ppm (Erysiphae graminis; Hordeum vulgare, 100 ppm, barley powdery mildew) of 100% and a pest or weed control at 2 ppm (Rhizoctonia solani AG-1) of 90%. The pest or weed control at 10 ppm (Rhizoctonia solani AG-1) was 98%, the pest or weed control at 50 ppm (Rhizoctonia solani AG-1) was 100% and the pest or weed control at 100 ppm (Rhizoctonia solani AG-1) was 100%.
